This is an account of results in ChEMBL document CHEMBL1148361, “Total synthesis and anti-tubulin activity of epi-c3 analogues of cryptophycin-24” (J Med Chem, 2004).

Experiment [1] concerns MCF7. Briefly: In vitro inhibitory activity of compound against induced cytotoxicity in MCF-7 cell line. It is filed as functional, cell-based, Homo sapiens.
The nature of experiment [2]: In vitro inhibitory activity of compound against microtubule polymerization in a tubulin assembly assay. The experiment is classed as functional.
The subject of experiment [3] is NCI/ADR-RES. In words: In vitro inhibitory activity of compound against induced cytotoxicity in multidrug-resistant MCF-7/ADR breast cancer cell line. The experiment is classed as functional, cell-based, Homo sapiens.
Experiment [4] can be described thus: Resistance factor was expressed as the IC50 of resistance cell line / IC50 of sensitive cell line. The experiment is classed as functional.

Some results are limits rather than exact numbers.

One may read the IC50 as the point on the concentration scale where inhibition reaches its midpoint.

`COc1ccc(C[C@H]2NC(=O)/C=C/C[C@@H]([C@H](C)/C=C/c3ccccc3)OC(=O)[C@@H](CC(C)C)OC(=O)CCNC2=O)cc1Cl`: the IC50 in experiment [1] (Homo sapiens, MCF7) was > 25 nM; in experiment [2] it was > 100000 nM; in experiment [3] (Homo sapiens, NCI/ADR-RES), > 25 nM.

As to `COc1ccc(C[C@H]2NC(=O)/C=C/C[C@@H](C(C)[C@H]3O[C@@H]3c3ccccc3)OC(=O)C(CC(C)C)OC(=O)CCNC2=O)cc1` (single isomer, unassigned) [ARENASTATIN A], the Resistance factor in experiment [4] worked out at 27.3. For the same molecule, the IC50 in experiment [1] (mcf7) was found to be 88 nM; in experiment [2], 13700 nM; in experiment [3] (nci/adr-res), 2400 nM.

Turning to `COc1ccc(C[C@H]2NC(=O)/C=C/CC(C(C)C3OC3c3ccccc3)OC(=O)[C@@H](CC(C)C)OC(=O)CCNC2=O)cc1Cl` (single isomer, unassigned), the Resistance factor in experiment [4] is 3.3. The IC50 was found to be 0.28 nM in experiment [1] (Homo sapiens, MCF7); 10600 nM in experiment [2]; 0.92 nM in experiment [3] (Homo sapiens, NCI/ADR-RES).

With `COc1ccc(C[C@H]2NC(=O)/C=C/C[C@@H]([C@H](C)[C@H]3O[C@@H]3c3ccccc3)OC(=O)[C@H](CC(C)C)OC(=O)[C@H](C)CNC2=O)cc1Cl` [CRYPTOPHYCIN A], the Resistance factor in experiment [4] was 2. For the same molecule, the IC50 in experiment [1] (Homo sapiens, MCF7) was found to be 0.009 nM; in experiment [2] it was 3400 nM; in experiment [3] (Homo sapiens, NCI/ADR-RES), 0.018 nM.

In the case of `COc1ccc(C[C@H]2NC(=O)/C=C/C[C@@H](C(C)[C@H]3O[C@@H]3c3ccccc3)OC(=O)[C@H](CC(C)C)OC(=O)CCNC2=O)cc1` (single isomer, unassigned) [ARENASTATIN A], in experiment [4], the Resistance factor is given as 1.9. In addition, the IC50 in experiment [1] (Homo sapiens, MCF7) worked out at 0.13 nM; in experiment [2] it was 15800 nM; in experiment [3] (nci/adr-res), 250 nM.

`COc1ccc(C[C@H]2NC(=O)/C=C/C[C@@H]([C@H](C)/C=C/c3ccccc3)OC(=O)[C@@H](CC(C)C)OC(=O)CCNC2=O)cc1`: the IC50 in experiment [1] (Homo sapiens, MCF7) was > 25 nM; in experiment [2] it was > 100000 nM; in experiment [3] (Homo sapiens, NCI/ADR-RES) it was > 25 nM.
